# Target: human A2A receptor (Homo sapiens (Human), UniProt P29274)
# Experiment: competition binding assay using Scintillation Proximity technology
# Conditions: membranes from CHO-K1 cells expressing the human A2a receptor; 2.0 nM tritiated compound; Cheng-Prusoff
# Method: The utility of the compounds in accordance with the present invention as A2A receptor antagonists may be readily determined without undue experimentation by methodologies well known in the art, including by a competition binding assay using Scintillation Proximity technology. Briefly, membranes from CHO-K1 cells expressing the human A2A receptor are incubated with a test compound at various concentrations, e.g., ranging from 3000 nM to 0.15 nM, in a reaction mixture also containing a tritiated form of 5-amino-7-[2-phenethyl]-2-(furan-2-yl)-7H-pyrazolo[4,3-e][1,2,4]triazolo[1,5-c]pyrimidine (the tritiated compound) and wheatgerm agglutin-coated yttrium silicate SPA beads at room temperature. The beads are then allowed to settle to the bottom of the wells, after which the membrane-associated radioactivity is determined by scintillation counting in a microplate reader. Ki values can be determined using the Cheng-Prusoff equation.
# Thus, 1.0 μg of membranes from CHO-K1 cells expressing the human A2a receptor were incubated with a compound of the invention at concentrations ranging from 3000 nM to 0.15 nM in a reaction mixture also containing 2.0 nM of a tritiated form of 5-amino-7-[2-phenethyl]-2-(furan-2-yl)-7H-pyrazolo[4,3-e][1,2,4]triazolo[1,5-c]pyrimidine (the tritiated compound) and 100 μg of wheatgerm agglutin-coated yttrium silicate SPA beads for one hour at room temperature with agitation. The beads were then allowed to settle to the bottom of the wells for 1 hr, after which the membrane-associated radioactivity was determined by scintillation counting in a TopCount microplate reader. Ki values were determined using the Cheng-Prusoff equation.
# Summary of Materials and Methods Used in A2a Activity Determination:
# • Membranes from CHO-K1 cells expressing the human Adenosine2A receptor (Perkin-Elmer #RBHA2AM400UA). • The tritiated compound was prepared according to published methods. • Wheatgerm agglutinin-coated yttrium silicate SPA beads (GE Healthcare #RPNQ0023). Dilute to 25 mg/ml in Assay Buffer. • Assay Buffer: Dulbecco's calcium and magnesium free phosphate buffered saline+10 mM MgCl2 • Adenosine deaminase (ADA) from calf intestine, 10 mg/2 ml (Roche #10 102 105 001). • DMSO • A2a antagonist standard (9-chloro-1-(2-furanyl)-[1,2,4]triazolo[1,5-c]quinazolin-5-amine from Tocris Bioscience) Compound Dilution • Make eight 1:3 serial dilutions in 100% DMSO from a 3 mM compound stock. • Transfer 50 nL of compound into a 384-well OptiPlate (Perkin Elmer). • Typically, final concentrations of compound used in the assay ranged from 3000 nM to 0.152 nM. Radioisotope • Dilute a solution of the tritiated compound to 5.0 nM in assay buffer. This is a 2.5× solution. The final concentration in the assay is 2.0 nM. Calculate the concentration by counting two 5 μL aliquots. Membrane Preparation • Use 1.0 μg of membrane/well. Dilute membranes to 33 μg/mL in assay buffer. Treat with 20 μg/mL ADA for 15 minutes at room temperature to degrade endogenous adenosine. Membrane-Bead Mixture • Use 100 μg/well wheatgerm agglutinin-coated yttrium silicate SPA beads. • Mix ADA-treated membranes and SPA beads together for 30 min prior to assay. Assay Assembly • To the Perkin-Elmer Optiplate-384 containing the compound titration add 20 μL of 2.5× solution of the tritiated compound and 30 μL of the membrane-bead mixture. Incubate for one hour at room temperature with agitation. • Include total binding (assay buffer+1% DMSO) and non-specific binding (CGS 15943, 1 μM) wells. Counting • Allow the beads to settle for one hour. • Count in TopCount. Calculations • A curve fitting program (i.e., Prism, Activity Base, Chemcart) is used to determine the EC50. The Ki value is calculated using the Cheng-Prusoff equation. Ki=EC50/(1+(radioligand concentration/Kd))
# Chain of human A2A receptor (P29274 whole entry): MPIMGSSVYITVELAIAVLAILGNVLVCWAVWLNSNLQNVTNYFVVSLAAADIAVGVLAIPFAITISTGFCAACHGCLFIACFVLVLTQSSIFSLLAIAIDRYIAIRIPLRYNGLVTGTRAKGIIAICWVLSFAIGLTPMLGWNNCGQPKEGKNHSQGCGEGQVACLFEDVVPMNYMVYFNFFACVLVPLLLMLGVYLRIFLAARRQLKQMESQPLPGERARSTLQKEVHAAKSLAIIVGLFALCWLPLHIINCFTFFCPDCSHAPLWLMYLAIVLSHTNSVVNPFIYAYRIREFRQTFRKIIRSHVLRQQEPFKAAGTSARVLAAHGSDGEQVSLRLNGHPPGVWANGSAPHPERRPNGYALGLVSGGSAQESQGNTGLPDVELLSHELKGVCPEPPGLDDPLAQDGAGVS
row,SMILES,Ki [nM]
1,"CC1(F)CCCN(CCc2nc3c4ccc5c(c4nc(N)n3n2)OC(F)(F)O5)C1 (single isomer, unassigned) [Example 64, (R or S)-2,2-difluoro-8-[2-(3-fluoro-3-methylpiperidin-1-yl)ethyl][1,3] dioxolo[4,5-h][1,2,4]triazolo[1,5-c] quinazolin-5-amine]",7.7
2,"CC1(F)CCCN(CCc2nc3c4ccc5c(c4nc(N)n3n2)OC(F)(F)O5)C1 (single isomer, unassigned) [Example 65, (R or S)-2,2-difluoro-8-[2-(3-fluoro-3-methylpiperidin-1-yl)ethyl][1,3] dioxolo[4,5-h][1,2,4]triazolo[1,5-c] quinazolin-5-amine]",4.2
3,"Nc1nc2c3c(ccc2c2nc(CCN4CC5CC4C(F)(F)C5)nn12)OC(F)(F)O3 (single isomer, unassigned) [Example 66, (R or S)-8-[2-(6,6-difluoro-2-azabicyclo[2.2.1]hept-2-yl)ethyl]-2,2-difluoro[1,3]dioxolo[4,5-h][1,2,4] triazolo[1,5-c]quinazolin-5-amine]",3
4,"Nc1nc2c3c(ccc2c2nc(CCN4CC5CC4C(F)(F)C5)nn12)OC(F)(F)O3 (single isomer, unassigned) [Example 67, (R or S)-8-[2-(6,6-difluoro-2-azabicyclo[2.2.1]hept-2-yl)ethyl]-2,2-difluoro[1,3]dioxolo[4,5-h][1,2,4] triazolo[1,5-c]quinazolin-5-amine]",3.5
5,"CC1N(CCc2nc3c4ccc5c(c4nc(N)n3n2)OC(F)(F)O5)CCCC1(F)F (single isomer, unassigned) [Example 68, (R or S)-8-[2-(3,3-difluoro-2-methylpiperidin-1-yl)ethyl]-2,2-difluoro[1,3]dioxolo[4,5-h][1,2,4] triazolo[1,5-c]quinazolin-5-amine]",1.2
6,"CC1N(CCc2nc3c4ccc5c(c4nc(N)n3n2)OC(F)(F)O5)CCCC1(F)F (single isomer, unassigned) [Example 69, (R or S)-8-[2-(3,3-difluoro-2-methylpiperidin-1-yl)ethyl]-2,2-difluoro[1,3]dioxolo[4,5-h][1,2,4] triazolo[1,5-c]quinazolin-5-amine]",1.8
7,"Nc1nc2c3c(ccc2c2nc(CCN4CCCC(O)(C(F)(F)F)C4)nn12)OC(F)(F)O3 (single isomer, unassigned) [Example 70, (R or S)-1-(2-(5-amino-2,2-difluoro-[1,3]dioxolo[4,5-h][1,2,4]triazolo[1,5-c]quinazolin-8-yl)ethyl)-3-(trifluoromethyl)piperidin-3-ol]",5.2
8,"Nc1nc2c3c(ccc2c2nc(CCN4CCCC(O)(C(F)(F)F)C4)nn12)OC(F)(F)O3 (single isomer, unassigned) [Example 71, (R or S)-1-(2-(5-amino-2,2-difluoro-[1,3]dioxolo[4,5-h][1,2,4]triazolo[1,5-c]quinazolin-8-yl)ethyl)-3-(trifluoromethyl)piperidin-3-ol]",3.9
9,"Nc1nc2c3c(ccc2c2nc(CCN4CCCC(F)(C(F)(F)F)C4)nn12)OC(F)(F)O3 (single isomer, unassigned) [Example 72, (R or S)-2,2-difluoro-8-(2-(3-fluoro-3-(trifluoromethyl)piperidin-1-yl)ethyl)-[1,3]dioxolo[4,5-h][1,2,4]triazolo[1,5-c]quinazolin-5-amine]",0.9
10,"Nc1nc2c3c(ccc2c2nc(CCN4CCCC(F)(C(F)(F)F)C4)nn12)OC(F)(F)O3 (single isomer, unassigned) [Example 73, (R or S)-2,2-difluoro-8-(2-(3-fluoro-3-(trifluoromethyl)piperidin-1-yl)ethyl)-[1,3]dioxolo[4,5-h][1,2,4]triazolo[1,5-c]quinazolin-5-amine]",0.9
11,"C[C@H](Cc1nc2c3ccc4c(c3nc(N)n2n1)OC(F)(F)O4)N1CCCC(C)(F)C1 (single isomer, unassigned) [Example 85, 2,2-difluoro-8-{(2R)-2-[(3R or 3S)-3-fluoro-3-methylpiperidin-1-yl]propyl}[1,3]dioxolo[4,5-h][1,2,4]triazolo[1,5-c]quinazolin-5-amine]",12
12,"C[C@H](Cc1nc2c3ccc4c(c3nc(N)n2n1)OC(F)(F)O4)N1CCCC(C)(F)C1 (single isomer, unassigned) [Example 86, 2,2-difluoro-8-{(2R)-2-[(3R or 3S)-3-fluoro-3-methylpiperidin-1-yl]propyl}[1,3]dioxolo[4,5-h][1,2,4]triazolo[1,5-c]quinazolin-5-amine]",16
13,"C[C@@H](Cc1nc2c3ccc4c(c3nc(N)n2n1)OC(F)(F)O4)N1CCCC(C)(F)C1 (single isomer, unassigned) [Example 89, 2,2-difluoro-8-{(2S)-2-[(3R or 3S)-3-fluoro-3-methylpiperidin-1-yl]propyl}[1,3] dioxolo[4,5-h] [1,2,4]triazolo[1,5-c]quinazolin-5-amine]",6.1
14,"C[C@@H](Cc1nc2c3ccc4c(c3nc(N)n2n1)OC(F)(F)O4)N1CCCC(C)(F)C1 (single isomer, unassigned) [Example 90, 2,2-difluoro-8-{(2S)-2-[(3R or 3S)-3-fluoro-3-methylpiperidin-1-yl]propyl}[1,3] dioxolo[4,5-h] [1,2,4]triazolo[1,5-c]quinazolin-5-amine]",12
15,"CC(Cc1nc2c3ccc4c(c3nc(N)n2n1)OC(F)(F)O4)N1Cc2cccnc2C1 (single isomer, unassigned) [Example 91, 8-[(2R or 2S)-2-(5,7-dihydro-6H-pyrrolo[3,4-b]pyridin-6-yl)propyl]-2,2-difluoro[1,3]dioxolo[4,5-h][1,2,4]triazolo[1,5-c]quinazolin-5-amine]",1.2
16,"CC(Cc1nc2c3ccc4c(c3nc(N)n2n1)OC(F)(F)O4)N1Cc2cccnc2C1 (single isomer, unassigned) [Example 92, 8-[(2R or 2S)-2-(5,7-dihydro-6H-pyrrolo[3,4-b]pyridin-6-yl)propyl]-2,2-difluoro[1,3]dioxolo[4,5-h][1,2,4]triazolo[1,5-c]quinazolin-5-amine]",4
17,"CC(Cc1nc2c3ccc4c(c3nc(N)n2n1)OC(F)(F)O4)N1CC(F)(F)C1 (single isomer, unassigned) [Example 93, (R or S)-8-[2-(3,3-difluoroazetidin-1-yl)propyl]-2,2-difluoro[1,3] dioxolo[4,5-h][1,2,4]triazolo[1,5-c] quinazolin-5-amine]",4.8
18,"CC(Cc1nc2c3ccc4c(c3nc(N)n2n1)OC(F)(F)O4)N1CC(F)(F)C1 (single isomer, unassigned) [Example 94, (R or S)-8-[2-(3,3-difluoroazetidin-1-yl)propyl]-2,2-difluoro[1,3] dioxolo[4,5-h][1,2,4]triazolo[1,5-c] quinazolin-5-amine]",4.1
19,"CC(Cc1nc2c3ccc4c(c3nc(N)n2n1)OC(F)(F)O4)N1CCCC(F)(F)C1 (single isomer, unassigned) [Example 95, (R or S)-8-[2-(3,3-difluoropiperidin-1-yl)propyl]-2,2-difluoro[1,3] dioxolo[4,5-h][1,2,4]triazolo[1,5-c] quinazolin-5-amine]",4.3
20,"CC(Cc1nc2c3ccc4c(c3nc(N)n2n1)OC(F)(F)O4)N1CCCC(F)(F)C1 (single isomer, unassigned) [Example 96, (R or S)-8-[2-(3,3-difluoropiperidin-1-yl)propyl]-2,2-difluoro[1,3] dioxolo[4,5-h][1,2,4]triazolo[1,5-c] quinazolin-5-amine]",4.1

# — patent US11046714B2, “2,2-difluorodioxolo A2A receptor antagonists” (Merck Sharp & Dohme Corp., priority 2013, dated 2021)
